Results reported in article PMC7866863, “A Cellular Assay for the Identification and Characterization of Connexin Gap Junction Modulators” (International Journal of Molecular Sciences, 2021).

Target: T1, Cx43 (connexin 43 gap junction) (Mus musculus, UniProt P23242)
T1 construct: gene Gja1; mouse Cx43 coding region, recombinantly expressed in HeLa donor and biosensor cells
Test: HeLa coculture cAMP-transfer GloSensor luminescence assay for Cx43 gap junctions
Assay type: cell-based

T1 sequence (P23242 2-382): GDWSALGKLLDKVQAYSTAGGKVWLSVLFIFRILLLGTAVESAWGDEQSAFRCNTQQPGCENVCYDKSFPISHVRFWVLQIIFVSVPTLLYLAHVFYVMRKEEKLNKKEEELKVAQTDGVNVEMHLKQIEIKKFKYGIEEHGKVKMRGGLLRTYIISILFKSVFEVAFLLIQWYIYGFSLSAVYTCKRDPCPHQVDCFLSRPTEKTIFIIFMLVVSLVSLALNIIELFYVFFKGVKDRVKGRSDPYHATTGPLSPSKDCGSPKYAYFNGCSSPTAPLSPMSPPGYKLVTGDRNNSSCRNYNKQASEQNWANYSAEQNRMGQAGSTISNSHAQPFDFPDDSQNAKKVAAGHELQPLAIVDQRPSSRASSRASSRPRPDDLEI

IC50: 44.5 ± 4.8 µM
Structure (SMILES): CC1(C)[C@@H](OC(=O)CCC(=O)O)CC[C@]2(C)[C@H]3C(=O)C=C4[C@@H]5C[C@@](C)(C(=O)O)CC[C@]5(C)CC[C@@]4(C)[C@]3(C)CC[C@@H]12 [carbenoxolone]
